Results reported in patent publication US20240041042A1, “1-(PYRIDYL)-5-AZINYLPYRAZOLE DERIVATIVES, AND THEIR USE FOR CONTROL OF UNDESIRED PLANT GROWTH” (Bayer Aktiengesellschaft, priority 2020, published 2024).

Assays:
Assay type in all cases: in vivo
[1] = system: Abutilon theophrasti (ABUTH); test: Pre-emergence herbicidal action against ABUTH; details: Dosage column 320 g/ha (title prints 3200 g/ha); scored visually after about 3 weeks; 100% = plants have died
Method in brief: (§1)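 Seeds sown in pots and covered with soil; WP or EC formulations sprayed onto the soil surface at 600 l/ha water with 0.5% additive, at 320 g/ha or lower. Greenhouse growth for about 3 weeks, then visual scoring as % effect against untreated controls (100% = plants dead).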

[2] = system: Alopecurus myosuroides (ALOMY); test: Pre-emergence herbicidal action against ALOMY; details: scored visually after about 3 weeks, 100% = plants have died
Method in brief: as §1

[3] = system: Amaranthus retroflexus (AMARE); test: Pre-emergence herbicidal action against AMARE; details: visual scoring after about 3 weeks vs untreated controls
Method in brief: as §1

Avena fatua (AVEFA) [4] = test: Pre-emergence herbicidal action against AVEFA; details: 320 g/ha, visual scoring after about 3 weeks vs untreated controls
Method in brief: as §1

[5] = system: Digitaria sanguinalis (DIGSA); test: Pre-emergence herbicidal action against DIGSA
Method in brief: as §1

[6] = system: Echinochloa crus-galli (ECHCG); test: Pre-emergence herbicidal action against ECHCG
Method in brief: as §1

Lolium rigidum (LOLRI) [7] = test: Pre-emergence herbicidal action against LOLRI
Method in brief: as §1

[8] = system: Matricaria inodora (MATIN); test: Pre-emergence herbicidal action against MATIN
Method in brief: as §1

[9] = system: Pharbitis purpurea (PHBPU); test: Pre-emergence herbicidal action against PHBPU
Method in brief: as §1

[10] = system: Polygonum convolvulus (POLCO); test: Pre-emergence herbicidal action against POLCO
Method in brief: as §1

Setaria viridis (SETVI) [11] = test: Pre-emergence herbicidal action against SETVI
Method in brief: as §1

[12] = system: Verconica persica (VERPE); test: Pre-emergence herbicidal action against VERPE; details: dosage 320 g/ha
Method in brief: as §1

Viola tricolor (VIOTR) [13] = test: Pre-emergence herbicidal action against VIOTR
Method in brief: as §1

Avena fatua (AVEFA) [14] = test: Post-emergence herbicidal action against AVEFA; details: 320 g/ha, visual rating about 3 weeks after treatment
Method in brief: (§2)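 Values are percent visual activity (0% like control, 100% plants dead) after about 3 weeks in the greenhouse. Treatment: post-emergence spray at one-leaf stage, 600 l/ha spray volume, 0.5% additive, doses 320 g/ha or lower.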

[15] = system: Digitaria sanguinalis (DIGSA); test: Post-emergence herbicidal action against DIGSA; details: visual rating about 3 weeks after treatment
Method in brief: as §2

[16] = system: Echinochloa crus-galli (ECHCG); test: Post-emergence herbicidal action against ECHCG
Method in brief: as §2

Lolium rigidum (LOLRI) [17] = test: Post-emergence herbicidal action against LOLRI
Method in brief: as §2

[18] = system: Matricaria inodora (MATIN); test: Post-emergence herbicidal action against MATIN
Method in brief: as §2

[19] = system: Pharbitis purpurea (PHBPU); test: Post-emergence herbicidal action against PHBPU
Method in brief: as §2

[20] = system: Polygonum convolvulus (POLCO); test: Post-emergence herbicidal action against POLCO
Method in brief: as §2

Setaria viridis (SETVI) [21] = test: Post-emergence herbicidal action against SETVI
Method in brief: as §2

Viola tricolor (VIOTR) [22] = test: Post-emergence herbicidal action against VIOTR
Method in brief: as §2

[23] = system: Abutilon theophrasti (ABUTH); test: Post-emergence herbicidal action against ABUTH; details: visual rating about 3 weeks after treatment vs untreated controls (100% = plants have died, 0% = like control plants)
Method in brief: as §2

[24] = system: Alopecurus myosuroides (ALOMY); test: Post-emergence herbicidal action against ALOMY; details: visual rating about 3 weeks after treatment vs untreated controls (100% = plants have died, 0% = like control plants)
Method in brief: as §2

[25] = system: Amaranthus retroflexus (AMARE); test: Post-emergence herbicidal action against AMARE
Method in brief: as §2

[26] = system: Verconica persica (VERPE); test: Post-emergence herbicidal action against VERPE
Method in brief: as §2

Oryza sativa (ORYSA) = details: crop plant compatibility, 80 g/ha, effect in comparison to untreated controls
Method in brief: (§3)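 Greenhouse crops in sandy loam sprayed post-emergence at the one-leaf stage, 2–3 weeks after sowing, with WP or EC formulations in water plus 0.5% additive at 600 l/ha. Damage rated visually about 3 weeks later versus untreated controls (0% = like control, 100% = dead); suffixes a–c denote different doses.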

Zea mays (ZEAMX) = details: crop plant compatibility, 80 g/ha, effect vs untreated controls
Method in brief: as §3

[27] = 80 g/ha, visual scoring after about 3 weeks vs untreated controls

COC(=O)[C@@H](C)Oc1nn(-c2nc(F)ccc2F)c(-c2cncc(F)c2)c1Cl [Example I-154]
80%: Pre-emergence action against ALOMY ([2]; 80 g/ha) | Pre-emergence action against AVEFA in % (Avena fatua (AVEFA) [4]) | Pre-emergence action against PHBPU in % ([9]; dosage 80 g/ha) | Post-emergence action against AVEFA in % (Avena fatua (AVEFA) [14]) | Post-emergence action against DIGSA in % ([15]; 80 g/ha) | Post-emergence action against ECHCG in % ([16]; dosage 80 g/ha) | Post-emergence action against ECHCG in % ([16]; dosage 320 g/ha) | Post-emergence action against LOLRI in % (Lolium rigidum (LOLRI) [17]; dosage 80 g/ha) | Post-emergence action against MATIN in % ([18]; dosage 320 g/ha) | Post-emergence action against PHBPU in % ([19]; dosage 80 g/ha) | Post-emergence action against POLCO in % ([20]; dosage 320 g/ha) | Post-emergence action against SETVI in % (Setaria viridis (SETVI) [21]; dosage 320 g/ha) | Post-emergence action against VIOTR in % (Viola tricolor (VIOTR) [22]; 320 g/ha)
100%: Pre-emergence action against AMARE in % ([3]; 320 g/ha) | Pre-emergence action against DIGSA in % ([5]; dosage 320 g/ha) | Pre-emergence action against ECHCG in % ([6]; dosage 320 g/ha) | Pre-emergence action against LOLRI in % (Lolium rigidum (LOLRI) [7]; dosage 320 g/ha) | Pre-emergence action against MATIN in % ([8]; dosage 320 g/ha) | Pre-emergence action against SETVI in % (Setaria viridis (SETVI) [11]; dosage 320 g/ha) | Pre-emergence action against VERPE in % [12] | Pre-emergence action against VIOTR in % (Viola tricolor (VIOTR) [13]; 320 g/ha, Viola tricolor) | Pre-emergence action against VIOTR in % (Viola tricolor (VIOTR) [13]; dosage 80 g/ha)
90%: Pre-emergence action against ABUTH [1] | Pre-emergence action against ALOMY ([2]; 320 g/ha) | Pre-emergence action against AMARE in % ([3]; 80 g/ha) | Pre-emergence action against DIGSA in % [5, 27] | Pre-emergence action against ECHCG in % ([6]; dosage 80 g/ha) | Pre-emergence action against LOLRI in % (Lolium rigidum (LOLRI) [7]; dosage 80 g/ha) | Pre-emergence action against MATIN in % ([8]; dosage 80 g/ha) | Pre-emergence action against PHBPU in % ([9]; dosage 320 g/ha) | Pre-emergence action against POLCO in % ([10]; dosage 320 g/ha) | Pre-emergence action against SETVI in % (Setaria viridis (SETVI) [11]; dosage 80 g/ha) | Post-emergence action against DIGSA in % ([15]; 320 g/ha) | Post-emergence action against LOLRI in % (Lolium rigidum (LOLRI) [17]; dosage 320 g/ha) | Post-emergence action against PHBPU in % ([19]; dosage 320 g/ha)

COC(=O)COc1nn(-c2ncccc2F)c(-c2ccc(F)nc2)c1Br [Example I-07]
80%: Pre-emergence action against MATIN in % ([8]; dosage 80 g/ha) | Post-emergence action against ABUTH in % ([23]; 80 g/ha) | Post-emergence action against PHBPU in % ([19]; dosage 80 g/ha) | Post-emergence action against PHBPU in % ([19]; dosage 320 g/ha) | Post-emergence action against POLCO in % ([20]; dosage 80 g/ha) | Post-emergence action against POLCO in % ([20]; dosage 320 g/ha)
90%: Pre-emergence action against ABUTH [1] | Pre-emergence action against ALOMY ([2]; 80 g/ha) | Pre-emergence action against AMARE in % ([3]; 80 g/ha) | Pre-emergence action against AMARE in % ([3]; 320 g/ha) | Pre-emergence action against AVEFA in % (Avena fatua (AVEFA) [4]) | Pre-emergence action against PHBPU in % ([9]; dosage 320 g/ha) | Pre-emergence action against POLCO in % ([10]; dosage 80 g/ha) | Pre-emergence action against VIOTR in % (Viola tricolor (VIOTR) [13]; dosage 80 g/ha) | Post-emergence action against ABUTH in % ([23]; 320 g/ha) | Post-emergence action against ALOMY in % ([24]; 80 g/ha) | Post-emergence action against AMARE in % ([25]; 80 g/ha, visual rating about 3 weeks after treatment vs untreated controls (100% = plants have died, 0% = like control plants)) | Post-emergence action against AMARE in % ([25]; 320 g/ha, visual rating about 3 weeks after treatment) | Post-emergence action against AVEFA in % (Avena fatua (AVEFA) [14]) | Post-emergence action against DIGSA in % ([15]; 80 g/ha) | Post-emergence action against DIGSA in % ([15]; 320 g/ha) | Post-emergence action against ECHCG in % ([16]; dosage 320 g/ha) | Post-emergence action against LOLRI in % (Lolium rigidum (LOLRI) [17]; dosage 320 g/ha) | Post-emergence action against MATIN in % ([18]; dosage 80 g/ha) | Post-emergence action against SETVI in % (Setaria viridis (SETVI) [21]; dosage 80 g/ha) | Post-emergence action against SETVI in % (Setaria viridis (SETVI) [21]; dosage 320 g/ha) | Post-emergence action against VERPE in % ([26]; 320 g/ha, VERPE) | Post-emergence action against VERPE in % ([26]; dosage 80 g/ha) | Post-emergence action against VIOTR in % (Viola tricolor (VIOTR) [22]; 80 g/ha) | Post-emergence action against VIOTR in % (Viola tricolor (VIOTR) [22]; 320 g/ha)
0%: Post-emergence action against ORYSA in % (Oryza sativa (ORYSA)) | Post-emergence action against ZEAMX in % (Zea mays (ZEAMX))
100%: Pre-emergence action against ALOMY ([2]; 320 g/ha) | Pre-emergence action against DIGSA in % [5, 27] | Pre-emergence action against DIGSA in % ([5]; dosage 320 g/ha) | Pre-emergence action against ECHCG in % ([6]; dosage 320 g/ha) | Pre-emergence action against LOLRI in % (Lolium rigidum (LOLRI) [7]; dosage 320 g/ha) | Pre-emergence action against MATIN in % ([8]; dosage 320 g/ha) | Pre-emergence action against POLCO in % ([10]; dosage 320 g/ha) | Pre-emergence action against SETVI in % (Setaria viridis (SETVI) [11]; dosage 320 g/ha) | Pre-emergence action against VERPE in % [12] | Pre-emergence action against VIOTR in % (Viola tricolor (VIOTR) [13]; 320 g/ha, Viola tricolor) | Post-emergence action against ALOMY in % ([24]; 320 g/ha) | Post-emergence action against MATIN in % ([18]; dosage 320 g/ha)
